In one data set the target is T1, acid ceramidase (Homo sapiens, UniProt Q13510).
T1 construct: Cell lysates overexpressing acid ceramidase were used as the enzyme source; expressed in transfected cells
T1 sequence (Q13510 22-395): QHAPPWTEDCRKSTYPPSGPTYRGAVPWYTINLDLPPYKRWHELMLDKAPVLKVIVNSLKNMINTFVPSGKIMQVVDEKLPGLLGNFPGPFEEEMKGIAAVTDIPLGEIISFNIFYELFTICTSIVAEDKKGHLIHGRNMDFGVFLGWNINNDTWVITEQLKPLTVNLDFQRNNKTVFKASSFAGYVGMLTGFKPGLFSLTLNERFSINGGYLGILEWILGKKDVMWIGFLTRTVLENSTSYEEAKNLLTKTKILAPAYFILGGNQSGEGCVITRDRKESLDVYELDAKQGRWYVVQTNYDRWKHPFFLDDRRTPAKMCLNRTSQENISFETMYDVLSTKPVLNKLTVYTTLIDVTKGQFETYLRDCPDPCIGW
The experiment in a line: Acid ceramidase inhibition, biochemical fluorescent assay with cell lysates overexpressing acid ceramidase, substrate Rbm14-12. As to conditions: substrate Rbm14-12 6.3 μM. An outline of the steps:
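Lysate of cells overexpressing acid ceramidase (10 μg protein) preincubated with compound dose series 1 hr at RT in 25 mM NaAC, 100 mM NaCl, pH 4.5, then reacted 1 hr with 6.3 μM Rbm14-12. Stopped with NaIO4/glycine buffer pH 10.6, fluorescence ex360/em446; IC50 by four-parameter fit.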

The nature of another data set: physchem. The conditions noted are these: water.
Data set [1] is described as follows: Compound solubility in water.
Setting [2] is: pH 4.5, 1 hr preincubation at RT.

In brackets after ≈: the same amount, converted by molar mass.

With `O=C(NCCCc1ccccc1)n1cnc2c(N3CC3C(F)(F)F)cccc21` (centres unmarked) [Example 242, N-(3-phenylpropyl)-4-(2-(trifluoromethyl)aziridin-1-yl)-1H-benzo[d]imidazole-1-carboxamide], the IC50 on acid ceramidase (pH 4.5) was < 200 nM. In “physchem”, this molecule registered a solubility of 1 µg/mL (≈ 2.57 µM).

As for `O=C(NCCCc1ccccc1)n1cnc2c(N3CC3F)cccc21` (centres unmarked) [Example 274, 4-(2-Fluoroaziridin-1-yl)-N-(3-phenylpropyl)-1H-benzo[d]imidazole-1-carboxamide], the IC50 at acid ceramidase (pH 4.5) was < 200 nM. This molecule gave a solubility in “physchem” of 17 µg/mL (≈ 50.2 µM).

Take `CC(C)CCNC(=O)n1cnc2c(N3CC3C(F)(F)F)cccc21` (centres unmarked) [Example 164, N-iso-Pentyl-4-(2-(trifluoromethyl)-aziridin-1-yl)-1H-benzo[d]imidazole-1-carboxamide]: on acid ceramidase (pH 4.5), the IC50 was < 200 nM. The same molecule had a solubility in “physchem” of 2 µg/mL (≈ 5.88 µM).

With `CC(C)C#CCNC(=O)n1cnc2c(N3CC3C(F)(F)F)cccc21` (centres unmarked) [Example 308, N-(4-Methylpent-2-yn-1-yl)-4-(2-(trifluoromethyl)-aziridin-1-yl)-1H-benzo[d]imidazole-1-carboxamide], the IC50 at acid ceramidase (pH 4.5) is < 200 nM. The same molecule displayed a solubility in “physchem” of 1 µg/mL (≈ 2.85 µM).

Consider `CC(=O)N1CCN(c2cccc3c2ncn3C(=O)NCC2(CC(C)C)CC2)CC1` [Example 222, 4-(4-Acetylpiperazin-1-yl)-N-((1-iso-butyl-cyclopropyl)methyl)-1H-benzo[d]imidazole-1-carboxamide], for which the IC50 at acid ceramidase (pH 4.5) is < 200 nM. For the same molecule, in data set [1], the solubility came to 7 µg/mL (≈ 17.6 µM).

At acid ceramidase (pH 4.5), `CC(C)CCNC(=O)n1cnc2c(N3CCC4(CC3)COC4)cccc21` [Example 175, N-iso-Pentyl-4-(2-oxa-7-azaspiro[3.5]nonan-7-yl)-1H-benzo[d]imidazole-1-carboxamide] registered an IC50 of 200 to 1000 nM. The molecule further gave a solubility in data set [1] of 18 µg/mL (≈ 50.5 µM).

For the molecule `COc1ccc(C#CCNC(=O)n2cnc3c(N4CCN(C)CC4)cccc32)cc1` [Example 339, N-(3-(4-Methoxyphenyl)prop-2-yn-1-yl)-4-(4-methylpiperazin-1-yl)-1H-benzo[d]imidazole-1-carboxamide], the IC50 against acid ceramidase (setting [2]) was < 200 nM. Moreover, the solubility in data set [1] was determined as 16 µg/mL (≈ 39.7 µM).

As to `CCN1CCN(c2cccc3c2ncn3C(=O)NCCC2CCC(F)(F)C2)CC1` (centres unmarked) [Example 291, N-(2-(3,3-Difluorocyclopentyl)ethyl)-4-(4-ethylpiperazin-1-yl)-1H-benzo[d]imidazole-1-carboxamide], the IC50 at acid ceramidase (pH 4.5) fell in the range of 200 to 1000 nM. Besides, in data set [1], the solubility turned out to be 20 µg/mL (≈ 49.3 µM).

As to `O=C(NCCCc1ccccc1)n1cnc2c(CCCN3CCC3)cccc21` [Example 262, 4-(3-(Azetidin-1-yl)propyl)-N-(3-phenylpropyl)-1H-benzo[d]imidazole-1-carboxamide], the half-maximal inhibitory concentration (IC50) against acid ceramidase (pH 4.5) was < 200 nM. Besides, the solubility in data set [1] was determined as 21 µg/mL (≈ 55.8 µM).

As to `CC(C)CCNC(=O)n1cnc2c(N3CCN(C)CC3)cc(C#N)cc21` [Example 180, 6-Cyano-N-iso-pentyl-4-(4-methylpiperazin-1-yl)-1H-benzo[d]imidazole-1-carboxamide], the IC50 at acid ceramidase (pH 4.5) is < 200 nM. The solubility in data set [1] came to 23 µg/mL (≈ 64.9 µM).

For `CC(C)CCNC(=O)n1cnc2c(N3CCOC[C@@H]3C)cccc21` [Example 169, (S)—N-iso-Pentyl-4-(3-methylmorpholino)-1H-benzo[d]imidazole-1-carboxamide], the half-inhibitory concentration (IC50) against acid ceramidase (pH 4.5) was 200 to 1000 nM. This molecule showed a solubility in data set [1] of 23 µg/mL (≈ 69.6 µM).

In turn, `COc1nc2c(N3CCN(C)CC3)cccc2n1C(=O)NCC#Cc1ccccc1` [Example 322, 2-Methoxy-4-(4-methylpiperazin-1-yl)-N-(3-phenylprop-2-yn-1-yl)-1H-benzo[d]imidazole-1-carboxamide] returned an IC50 against acid ceramidase (pH 4.5) of 200 to 1000 nM. Besides, the solubility in data set [1] was determined as 22 µg/mL (≈ 54.5 µM).

Consider `CC(C)CCNC(=O)n1c(=O)n(C)c2ncccc21` [Example 105, N-iso-Pentyl-3-methyl-2-oxo-2,3-dihydro-1H-imidazo[4,5-b]pyridine-1-carboxamide], for which the IC50 against acid ceramidase (setting [2]) is > 1000 nM. This molecule also gave a solubility in data set [1] of 17.4 µg/mL (≈ 66.3 µM).

On to `O=C1CCC2CN(c3cccc4c3ncn4C(=O)NCCCc3ccccc3)CCN12` (centres unmarked) [Example 275, 4-(6-Oxohexahydropyrrolo[1,2-a]pyrazin-2(1H)-yl)-N-(3-phenylpropyl)-1H-benzo[d]imidazole-1-carboxamide], for which the half-maximal inhibitory concentration (IC50) against acid ceramidase (pH 4.5) was < 200 nM. The same molecule returned a solubility in data set [1] of 15 µg/mL (≈ 35.9 µM).

Take `COc1nc2cc(F)c(N3CCOCC3)cc2n1C(=O)NCCCCc1ccccc1` [Example 214, 5-Fluoro-2-methoxy-6-morpholino-N-(4-phenylbutyl)-1H-benzo[d]imidazole-1-carboxamide]: at acid ceramidase (pH 4.5), the IC50 is < 200 nM. In data set [1], the concentration in solution (solubility) came to 0.3 µg/mL (≈ 0.703 µM).

Regarding `COc1nc2cc(F)c(N3CCOCC3)cc2n1C(=O)NCCOc1ccccc1` [Example 335a, 5-Fluoro-2-methoxy-6-morpholino-N-(2-phenoxyethyl)-1H-benzo[d]imidazole-1-carboxamide], on acid ceramidase (setting [2]), the IC50 is < 200 nM. This molecule gave a solubility in data set [1] of 1 µg/mL (≈ 2.41 µM).

In turn, `CC(C)CCNC(=O)n1c(=O)n(C)c2cccnc21` [Example 104, N-iso-Pentyl-1-methyl-2-oxo-1,2-dihydro-3H-imidazo[4,5-b]pyridine-3-carboxamide] registered an IC50 at acid ceramidase (setting [2]) of 200 to 1000 nM. The solubility in data set [1] is 17 µg/mL (≈ 64.8 µM).

`CC(C)CCNC(=O)n1cnc2c(N3CC4CC(C3)N4C)cccc21` [Example 160, N-iso-Pentyl-4-(6-methyl-3,6-diazabicyclo[3.1.1]-heptan-3-yl)-1H-benzo[d]imidazole-1-carboxamide] displayed an IC50 at acid ceramidase (setting [2]) of 200 to 1000 nM. Also, the solubility in data set [1] worked out at 35 µg/mL (≈ 103 µM).

Take `CC(C)CCNC(=O)n1cnc2c(N3CC4CCC(C3)O4)cccc21` [Example 221, 4-(8-Oxa-3-azabicyclo[3.2.1]octan-3-yl)-N-isopentyl-1H-benzo[d]imidazole-1-carboxamide]: the IC50 at acid ceramidase (pH 4.5) lay in the range of 200 to 1000 nM. This molecule displayed a solubility in data set [1] of 5 µg/mL (≈ 14.6 µM).

The values above are taken from patent US20220380319A1 (Bial - R&D Investments, S.A., priority 2019, published 2022).
